Laboratory results published in PubChem BioAssay AID212 (DTP/NCI, 2004).
Several values for one entry are separate records, joined by “and”; a condition that tells them apart may be missing. Equal values may be shown once. Records with an inconclusive call do not appear.

Tested on: BDF1 mice, colon carcinoma 38 sc, T/C %
Assay: NCI In Vivo Anticancer Drug Screen. Data for tumor model Colon Carcinoma 38 (subcutaneous) in B6D2F1 (BDF1) mice
Details: endpoint: median tumor weight (est.), higher = larger tumour
How it was run: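 Ratio of survival or tumor size, compound-treated animals relative to vehicle controls, in tumor-bearing mice.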

[1] = dose: 12.5 mg/kg/injection, schedule: Q07DX002 (ip), vehicle: saline with Tween-80
[2] = dose: 25.0 mg/kg/injection, schedule: Q07DX002 (ip), vehicle: saline with Tween-80
[3] = dose: 100.0 mg/kg/injection, schedule: Q07DX002 (ip), vehicle: saline with Tween-80
[4] = dose: 3.12 mg/kg/injection, schedule: Q07DX002 (ip), vehicle: saline
[5] = dose: 6.25 mg/kg/injection, schedule: Q07DX002 (ip), vehicle: saline
[6] = dose: 12.5 mg/kg/injection, schedule: Q07DX002 (ip), vehicle: saline
[7] = dose: 25.0 mg/kg/injection, schedule: Q07DX002 (ip), vehicle: saline
[8] = dose: 100.0 mg/kg/injection, schedule: Q07DX002 (ip), vehicle: saline
[9] = dose: 50.0 mg/kg/injection, schedule: Q07DX002 (ip), vehicle: saline with Tween-80
[10] = dose: 50.0 mg/kg/injection, schedule: Q07DX002 (ip), vehicle: saline
[11] = dose: 200.0 mg/kg/injection, schedule: Q07DX002 (ip), vehicle: saline with Tween-80
[12] = dose: 400.0 mg/kg/injection, schedule: Q07DX002 (ip), vehicle: saline with Tween-80
[13] = dose: 200.0 mg/kg/injection, schedule: Q07DX002 (ip), vehicle: saline
[14] = dose: 400.0 mg/kg/injection, schedule: Q07DX002 (ip), vehicle: saline
[15] = dose: 6.25 mg/kg/injection, schedule: Q07DX002 (ip), vehicle: saline with Tween-80

Compound: COc1cc2c(c(OC)c1OC)-c1ccc(OC)c(=O)cc1[C@@H](NC(C)=O)CC2
- T/C (dose: 0.12 mg/kg/injection, schedule: Q07DX002 (ip), vehicle: saline): 105 % of control
- T/C (dose: 0.25 mg/kg/injection, schedule: Q07DX002 (ip), vehicle: saline): 121 % of control
- T/C (dose: 0.37 mg/kg/injection, schedule: Q07DX002 (ip), vehicle: saline): 119 % of control
- T/C (dose: 0.75 mg/kg/injection, schedule: Q07DX002 (ip), vehicle: saline): 69 % of control
- T/C (dose: 1.0 mg/kg/injection, schedule: Q07DX002 (ip), vehicle: saline): 159 % of control
- T/C (dose: 1.5 mg/kg/injection, schedule: Q07DX002 (ip), vehicle: saline): 87 % of control
- T/C (dose: 1.56 mg/kg/injection, schedule: Q07DX002 (ip), vehicle: saline): 95 % of control
- T/C (dose: 3.0 mg/kg/injection, schedule: Q07DX002 (ip), vehicle: saline): 87 % of control
- T/C (dose: 4.0 mg/kg/injection, schedule: Q07DX002 (ip), vehicle: saline): 111 % of control
- T/C (dose: 6.0 mg/kg/injection, schedule: Q07DX002 (ip), vehicle: saline): 5 % of control

Compound: O=C1NC(=O)/C(=C/C=C/c2ccccc2)S1
- T/C (dose: 1.81 mg/kg/injection, schedule: Q07DX002 (ip), vehicle: saline with Tween-80): 70 % of control
- T/C (dose: 3.62 mg/kg/injection, schedule: Q07DX002 (ip), vehicle: saline with Tween-80): 198 % of control
- T/C (dose: 7.25 mg/kg/injection, schedule: Q07DX002 (ip), vehicle: saline with Tween-80): 84 % of control
- T/C [1]: 117 % of control and 100 % of control
- T/C (dose: 14.5 mg/kg/injection, schedule: Q07DX002 (ip), vehicle: saline with Tween-80): 85 % of control
- T/C [2]: 65 % of control and 80 % of control
- T/C (dose: 29.0 mg/kg/injection, schedule: Q07DX002 (ip), vehicle: saline with Tween-80): 69 % of control
- T/C (dose: 58.0 mg/kg/injection, schedule: Q07DX002 (ip), vehicle: saline with Tween-80): 78 % of control
- T/C [3]: 175 % of control

Compound: NC(=O)c1ccc[n+](Cc2c(Cl)cccc2Cl)c1
- T/C [4]: 83 % of control and 94 % of control
- T/C [5]: 68 % of control
- T/C [6]: 97 % of control
- T/C [7]: 116 % of control and 94 % of control
- T/C [8]: 85 % of control and 90 % of control

Compound: NCCOCC(N)C(=O)O (stereo not drawn)
- T/C (dose: 125.0 mg/kg/injection, schedule: Q07DX002 (ip), vehicle: saline): 112 % of control
- T/C (dose: 250.0 mg/kg/injection, schedule: Q07DX002 (ip), vehicle: saline): 84 % of control
- T/C (dose: 500.0 mg/kg/injection, schedule: Q07DX002 (ip), vehicle: saline): 107 % of control
- T/C (dose: 1000.0 mg/kg/injection, schedule: Q07DX002 (ip), vehicle: saline): 107 % of control

Compound: COc1ccc(C(=O)c2no[n+]([O-])c2C(=O)c2ccc(OC)cc2)cc1
- T/C [1]: 107 % of control
- T/C [9]: 99 % of control and 106 % of control

Compound: COc1cccc(-c2cc(=O)c3cccc(CC(=O)O)c3o2)c1
- T/C [6]: 88 % of control
- T/C [7]: 97 % of control
- T/C [10]: 110 % of control
- T/C [8]: 33 % of control

Compound: CC(Oc1ccccc1-c1ccccc1)C(=O)N(C)C (stereo not drawn)
- T/C [3]: 79 % of control and 82 % of control
- T/C [11]: 74 % of control and 78 % of control
- T/C [12]: 56 % of control and 75 % of control
- T/C (dose: 800.0 mg/kg/injection, schedule: Q07DX002 (ip), vehicle: saline with Tween-80): 49 % of control and 68 % of control

Compound: C[C@@]1(CO)[C@H](O)CC[C@@]2(C)[C@H]1CC[C@H]1C[C@@H]3C[C@@]12CC[C@@]3(O)COC(=O)CN
- T/C (dose: 25.0 micrograms/kg/injection, schedule: Q07DX002 (ip), vehicle: saline + alcohol): 155 % of control
- T/C (dose: 100.0 micrograms/kg/injection, schedule: Q07DX002 (ip), vehicle: saline + alcohol): 107 % of control

Compound: CCC12C[N+]3([O-])CCc4c([nH]c5ccccc45)C(C(=O)OC)(c4cc5c(cc4OC)N(C)C4C(O)(C(=O)OC)C(OC(C)=O)C6(CC)C=CCN7CCC54C76)CC(C3)C1O2 (stereo not drawn)
- T/C (dose: 1.25 mg/kg/injection, schedule: Q07DX002 (ip), vehicle: water): 113 % of control
- T/C (dose: 2.5 mg/kg/injection, schedule: Q07DX002 (ip), vehicle: water): 90 % of control
- T/C (dose: 5.0 mg/kg/injection, schedule: Q07DX002 (ip), vehicle: water): 84 % of control
- T/C (dose: 10.0 mg/kg/injection, schedule: Q07DX002 (ip), vehicle: water): 108 % of control
- T/C (dose: 20.0 mg/kg/injection, schedule: Q07DX002 (ip), vehicle: water): 82 % of control
- T/C (dose: 40.0 mg/kg/injection, schedule: Q07DX002 (ip), vehicle: water): 94 % of control

Compound: O=Cc1ccc(C(Cl)(Cl)Cl)cc1
- T/C [1]: 47 % of control
- T/C [6]: 78 % of control
- T/C [2]: 74 % of control
- T/C [7]: 79 % of control
- T/C [10]: 74 % of control
- T/C [3]: 93 % of control
- T/C [8]: 88 % of control
- T/C [11]: 66 % of control
- T/C [13]: 67 % of control
- T/C [14]: 82 % of control

Compound: CN(Cc1cnc2nc(N)nc(N)c2n1)c1ccc(C(=O)N[C@@H](CCC(=O)O)C(=O)O)cc1
- T/C (dose: 1.25 mg/kg/injection, schedule: Q07DX002 (ip), vehicle: sodium bicarbonate): 105 % of control
- T/C (dose: 2.5 mg/kg/injection, schedule: Q07DX002 (ip), vehicle: sodium bicarbonate): 167 % of control and 170 % of control
- T/C (dose: 5.0 mg/kg/injection, schedule: Q07DX002 (ip), vehicle: sodium bicarbonate): 122 % of control
- T/C (dose: 10.0 mg/kg/injection, schedule: Q07DX002 (ip), vehicle: sodium bicarbonate): 111 % of control
- T/C (dose: 20.0 mg/kg/injection, schedule: Q07DX002 (ip), vehicle: sodium bicarbonate): 115 % of control and 117 % of control

Compound: CO[C@@H]1[C@H](O)CC[C@]2(CO2)[C@H]1[C@@]1(C)O[C@@H]1CC=C(C)C
- T/C (dose: 3.12 mg/kg/injection, schedule: Q07DX002 (ip), vehicle: saline with Tween-80): 46 % of control and 55 % of control
- T/C [15]: 50 % of control and 61 % of control
- T/C [9]: 63 % of control and 68 % of control and 71 % of control
- T/C [11]: 92 % of control

Compound: O=C1CC(C(=O)N2Cc3cc4ccccc4nc3C2)CO1 (stereo not drawn)
- T/C [15]: 72 % of control
- T/C [1]: 100 % of control
- T/C [2]: 101 % of control
- T/C [9]: 122 % of control
- T/C [3]: 124 % of control
- T/C [11]: 100 % of control

Compound: COC1(OC)C2C=CC1CC2
- T/C [1]: 73 % of control
- T/C [9]: 105 % of control and 107 % of control
- T/C [11]: 80 % of control and 94 % of control
- T/C [12]: 113 % of control and 105 % of control

Compound: CC12C(=O)C=CCC1=CCC1C2CCC2(O)C(=O)OC3(C)C4CC5(C)C(COC16OC23C5C6=O)C(=O)O4 (stereo not drawn)
- T/C (dose: 50.0 mg/kg/injection, schedule: Q07DX002 (ip), vehicle: Klucel (hydroxypropylcellulose) (HPC)): 112 % of control
- T/C (dose: 100.0 mg/kg/injection, schedule: Q07DX002 (ip), vehicle: Klucel (hydroxypropylcellulose) (HPC)): 86 % of control
- T/C (dose: 400.0 mg/kg/injection, schedule: Q07DX002 (ip), vehicle: Klucel (hydroxypropylcellulose) (HPC)): 111 % of control

Compound: Cn1cnc([N+](=O)[O-])c1SCC(=O)O
- T/C [6]: 65 % of control
- T/C [7]: 62 % of control
- T/C [10]: 67 % of control
- T/C [8]: 99 % of control
- T/C (dose: 112.5 mg/kg/injection, schedule: Q07DX002 (ip), vehicle: saline): 111 % of control
- T/C [13]: 94 % of control
- T/C (dose: 225.0 mg/kg/injection, schedule: Q07DX002 (ip), vehicle: saline): 85 % of control
- T/C [14]: 100 % of control
- T/C (dose: 450.0 mg/kg/injection, schedule: Q07DX002 (ip), vehicle: saline): 163 % of control
- T/C (dose: 900.0 mg/kg/injection, schedule: Q07DX002 (ip), vehicle: saline): 59 % of control
- T/C (dose: 1800.0 mg/kg/injection, schedule: Q07DX002 (ip), vehicle: saline): 101 % of control

Compound: CC1CN1C(=O)NCCCCCCNC(=O)N1CC1C (stereo not drawn)
- T/C (dose: 5.0 mg/kg/injection, schedule: Q07DX003 (ip), vehicle: Klucel (hydroxypropylcellulose) (HPC)): 73 % of control and 90 % of control
- T/C (dose: 20.0 mg/kg/injection, schedule: Q07DX003 (ip), vehicle: Klucel (hydroxypropylcellulose) (HPC)): 15 % of control and 34 % of control
- T/C (dose: 40.0 mg/kg/injection, schedule: Q07DX003 (ip), vehicle: Klucel (hydroxypropylcellulose) (HPC)): 34 % of control

Compound: Brc1c(NC2=NCCN2)ccc2nccnc12
- T/C [4]: 87 % of control
- T/C [5]: 98 % of control
- T/C [6]: 92 % of control
- T/C [7]: 82 % of control
- T/C [10]: 72 % of control
- T/C [8]: 75 % of control
